Assays:
Test in all cases: relative viability (nuclei count vs DMSO), 5 days (fraction); higher = more cells survive
[1] = compound: CCN(CCO)CCCC(C)Nc1ccnc2cc(Cl)ccc12 [Hydroxychloroquine] + CS(=O)(=O)CCNCc1ccc(-c2ccc3ncnc(Nc4ccc(OCc5cccc(F)c5)c(Cl)c4)c3c2)o1 [Lapatinib] (partner 2 µM)
Outline: (§1)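 Relative viability was taken as the ratio of nuclei in treated wells to nuclei in vehicle wells. Lung cancer cell lines in 1536-well plates received compounds by pin tool one day after seeding, either one drug alone or a fixed anchor-drug dose plus five library-drug doses (not always all listed) in √10 steps. Nuclei were counted on 4× images after 5 days of treatment, and values are medians of duplicate plates.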

[2] = compound: CCN(CCO)CCCC(C)Nc1ccnc2cc(Cl)ccc12 [Hydroxychloroquine] + CCNC(=O)c1noc(-c2cc(C(C)C)c(O)cc2O)c1-c1ccc(CN2CCOCC2)cc1 [Luminespib] (partner 0.01 µM)
Outline: as §1

[3] = compound: CCN(CCO)CCCC(C)Nc1ccnc2cc(Cl)ccc12 [Hydroxychloroquine] + O=C(c1cc(Cc2n[nH]c(=O)c3ccccc23)ccc1F)N1CCN(C(=O)C2CC2)CC1 [Olaparib] (partner 8 µM)
Outline: as §1

[4] = compound: CCN(CCO)CCCC(C)Nc1ccnc2cc(Cl)ccc12 [Hydroxychloroquine] + Nc1ncn([C@H]2C[C@H](O)[C@@H](CO)O2)c(=O)n1 [Decitabine] (partner 2 µM)
Outline: as §1

Cell Line: HCC-15
- relative viability ([1]; first compound 0.5 µM): 0.847
- relative viability ([1]; first compound 1.581 µM): 0.812
- relative viability ([1]; first compound 5 µM): 0.873
- relative viability ([1]; first compound 15.81 µM): 0.867
- relative viability ([1]; first compound 50 µM): 0.836
- relative viability ([2]; first compound 0.5 µM): 0.433
- relative viability ([2]; first compound 1.581 µM): 0.39
- relative viability ([2]; first compound 5 µM): 0.25
- relative viability ([2]; first compound 15.81 µM): 0.252
- relative viability ([2]; first compound 50 µM): 0.503
- relative viability ([3]; first compound 0.5 µM): 0.688
- relative viability ([3]; first compound 1.581 µM): 0.675
- relative viability ([3]; first compound 5 µM): 0.735
- relative viability ([3]; first compound 15.81 µM): 0.817
- relative viability ([3]; first compound 50 µM): 0.626
- relative viability ([4]; first compound 0.5 µM): 0.674
- relative viability ([4]; first compound 1.581 µM): 0.648
- relative viability ([4]; first compound 5 µM): 0.627
- relative viability ([4]; first compound 15.81 µM): 0.666
- relative viability ([4]; first compound 50 µM): 0.702

Cell Line: NCI-H2170
- relative viability ([1]; first compound 0.5 µM): 0.261
- relative viability ([1]; first compound 1.581 µM): 0.251
- relative viability ([1]; first compound 5 µM): 0.275
- relative viability ([1]; first compound 15.81 µM): 0.276
- relative viability ([1]; first compound 50 µM): 0.267
- relative viability ([2]; first compound 0.5 µM): 0.543
- relative viability ([2]; first compound 1.581 µM): 0.646
- relative viability ([2]; first compound 5 µM): 0.765
- relative viability ([2]; first compound 15.81 µM): 0.714
- relative viability ([2]; first compound 50 µM): 1.01
- relative viability ([3]; first compound 0.5 µM): 0.647
- relative viability ([3]; first compound 1.581 µM): 0.568
- relative viability ([3]; first compound 5 µM): 0.679
- relative viability ([3]; first compound 15.81 µM): 0.528
- relative viability ([3]; first compound 50 µM): 0.734
- relative viability ([4]; first compound 0.5 µM): 0.438
- relative viability ([4]; first compound 1.581 µM): 0.449
- relative viability ([4]; first compound 5 µM): 0.396
- relative viability ([4]; first compound 15.81 µM): 0.438
- relative viability ([4]; first compound 50 µM): 0.457

Cell Line: RERF-LC-KJ
- relative viability ([1]; first compound 0.5 µM): 0.847
- relative viability ([1]; first compound 1.581 µM): 0.805
- relative viability ([1]; first compound 5 µM): 0.942
- relative viability ([1]; first compound 15.81 µM): 0.779
- relative viability ([1]; first compound 50 µM): 0.94
- relative viability ([2]; first compound 0.5 µM): 1.08
- relative viability ([2]; first compound 1.581 µM): 1.22
- relative viability ([2]; first compound 5 µM): 1.31
- relative viability ([2]; first compound 15.81 µM): 1.14
- relative viability ([2]; first compound 50 µM): 1.1
- relative viability ([3]; first compound 0.5 µM): 0.917
- relative viability ([3]; first compound 1.581 µM): 0.948
- relative viability ([3]; first compound 5 µM): 0.896
- relative viability ([3]; first compound 15.81 µM): 0.846
- relative viability ([3]; first compound 50 µM): 0.933
- relative viability ([4]; first compound 0.5 µM): 0.659
- relative viability ([4]; first compound 1.581 µM): 0.684
- relative viability ([4]; first compound 5 µM): 0.754
- relative viability ([4]; first compound 15.81 µM): 0.7
- relative viability ([4]; first compound 50 µM): 0.608

Cell Line: NCI-H1993
- relative viability ([1]; first compound 0.5 µM): 0.751
- relative viability ([1]; first compound 1.581 µM): 0.759
- relative viability ([1]; first compound 5 µM): 0.899
- relative viability ([1]; first compound 15.81 µM): 0.834
- relative viability ([1]; first compound 50 µM): 0.839
- relative viability ([2]; first compound 0.5 µM): 0.943
- relative viability ([2]; first compound 1.581 µM): 0.789
- relative viability ([2]; first compound 5 µM): 0.846
- relative viability ([2]; first compound 15.81 µM): 0.864
- relative viability ([2]; first compound 50 µM): 0.928
- relative viability ([3]; first compound 0.5 µM): 1.24
- relative viability ([3]; first compound 1.581 µM): 1.04
- relative viability ([3]; first compound 5 µM): 1.14
- relative viability ([3]; first compound 15.81 µM): 0.61
- relative viability ([3]; first compound 50 µM): 1.11
- relative viability ([4]; first compound 0.5 µM): 0.664
- relative viability ([4]; first compound 1.581 µM): 0.635
- relative viability ([4]; first compound 5 µM): 0.705
- relative viability ([4]; first compound 15.81 µM): 0.688
- relative viability ([4]; first compound 50 µM): 0.606

Cell Line: NCI-H358
- relative viability ([1]; first compound 0.5 µM): 0.487
- relative viability ([1]; first compound 1.581 µM): 0.432
- relative viability ([1]; first compound 5 µM): 0.412
- relative viability ([1]; first compound 15.81 µM): 0.486
- relative viability ([1]; first compound 50 µM): 0.476
- relative viability ([2]; first compound 0.5 µM): 0.286
- relative viability ([2]; first compound 1.581 µM): 0.293
- relative viability ([2]; first compound 5 µM): 0.282
- relative viability ([2]; first compound 15.81 µM): 0.283
- relative viability ([2]; first compound 50 µM): 0.388
- relative viability ([3]; first compound 0.5 µM): 0.675
- relative viability ([3]; first compound 1.581 µM): 0.585
- relative viability ([3]; first compound 5 µM): 0.522
- relative viability ([3]; first compound 15.81 µM): 0.973
- relative viability ([3]; first compound 50 µM): 0.571
- relative viability ([4]; first compound 0.5 µM): 0.208
- relative viability ([4]; first compound 1.581 µM): 0.203
- relative viability ([4]; first compound 5 µM): 0.217
- relative viability ([4]; first compound 15.81 µM): 0.21
- relative viability ([4]; first compound 50 µM): 0.201

Cell Line: NCI-H1915
- relative viability ([1]; first compound 0.5 µM): 0.958
- relative viability ([1]; first compound 1.581 µM): 0.91
- relative viability ([1]; first compound 5 µM): 1
- relative viability ([1]; first compound 15.81 µM): 1.07
- relative viability ([1]; first compound 50 µM): 1.02
- relative viability ([2]; first compound 0.5 µM): 0.756
- relative viability ([2]; first compound 1.581 µM): 0.788
- relative viability ([2]; first compound 5 µM): 0.94
- relative viability ([2]; first compound 15.81 µM): 1.12
- relative viability ([2]; first compound 50 µM): 0.915
- relative viability ([3]; first compound 0.5 µM): 0.244
- relative viability ([3]; first compound 1.581 µM): 0.243
- relative viability ([3]; first compound 5 µM): 0.262
- relative viability ([3]; first compound 15.81 µM): 0.275
- relative viability ([3]; first compound 50 µM): 0.265
- relative viability ([4]; first compound 0.5 µM): 0.252
- relative viability ([4]; first compound 1.581 µM): 0.247
- relative viability ([4]; first compound 5 µM): 0.273
- relative viability ([4]; first compound 15.81 µM): 0.252
- relative viability ([4]; first compound 50 µM): 0.263

Cell Line: SK-LU-1
- relative viability ([1]; first compound 0.5 µM): 0.932
- relative viability ([1]; first compound 1.581 µM): 0.845
- relative viability ([1]; first compound 5 µM): 0.896
- relative viability ([1]; first compound 15.81 µM): 0.871
- relative viability ([1]; first compound 50 µM): 0.909
- relative viability ([2]; first compound 0.5 µM): 0.21
- relative viability ([2]; first compound 1.581 µM): 0.209
- relative viability ([2]; first compound 5 µM): 0.21
- relative viability ([2]; first compound 15.81 µM): 0.205
- relative viability ([2]; first compound 50 µM): 0.187
- relative viability ([3]; first compound 0.5 µM): 0.45
- relative viability ([3]; first compound 1.581 µM): 0.425
- relative viability ([3]; first compound 5 µM): 0.491
- relative viability ([3]; first compound 15.81 µM): 0.426
- relative viability ([3]; first compound 50 µM): 0.445
- relative viability ([4]; first compound 0.5 µM): 0.605
- relative viability ([4]; first compound 1.581 µM): 0.631
- relative viability ([4]; first compound 5 µM): 0.664
- relative viability ([4]; first compound 15.81 µM): 0.557
- relative viability ([4]; first compound 50 µM): 0.762

Cell Line: LOU-NH91
- relative viability ([1]; first compound 0.5 µM): 0.759
- relative viability ([1]; first compound 1.581 µM): 0.591
- relative viability ([1]; first compound 5 µM): 0.776
- relative viability ([1]; first compound 15.81 µM): 0.754
- relative viability ([1]; first compound 50 µM): 0.738
- relative viability ([2]; first compound 0.5 µM): 0.369
- relative viability ([2]; first compound 1.581 µM): 0.313
- relative viability ([2]; first compound 5 µM): 0.307
- relative viability ([2]; first compound 15.81 µM): 0.345
- relative viability ([2]; first compound 50 µM): 0.371
- relative viability ([3]; first compound 0.5 µM): 0.945
- relative viability ([3]; first compound 1.581 µM): 0.846
- relative viability ([3]; first compound 5 µM): 0.888
- relative viability ([3]; first compound 15.81 µM): 0.869
- relative viability ([3]; first compound 50 µM): 0.961
- relative viability ([4]; first compound 0.5 µM): 0.761
- relative viability ([4]; first compound 1.581 µM): 0.732
- relative viability ([4]; first compound 5 µM): 0.833
- relative viability ([4]; first compound 15.81 µM): 0.83
- relative viability ([4]; first compound 50 µM): 0.824
